Test results from patent US5268389A, “Thiocarboxylate ester compounds compositions containing the same” (priority 1990, dated 1993).
Values joined by “and” are separate entries in the source; they are usually repeats but may differ in a detail not shown here. Equal values may be shown once.

How the values were obtained:
[1] = system: HIV; experiment: microbe, parasite or virus in culture; format: cell-based; conditions: CEM cells; for EC50: free HIV, read-out: Activity of Anti-HIV Compounds (EC50), CEMV
Procedure: (§1) The compounds of Examples were tested for anti-AIDS activity by subjecting them to standard National Cancer Institute ("NCI") in vitro screening procedures. In carrying out each test, two blanks were run. In the first blank, HIV and a culture of a standard human cell line were incubated together to measure the infectivity of the virus. The viability of the cells was measured after holding for six or seven days. In an "effective" test, most cells were infected before the holding period was complete.
In the second blank, the cell line culture and the compound being tested (but not virus) were incubated together to measure the toxicity of the drug to the cellline. The viability of the cells was measured as a function of concentration of the compound, after holding for seven days. Typically, the cells survive at low compound concentrations, but at some higher concentration, toxicity of the compound is manifested and the cells die. The concentration of the test compound that results in 50% inhibition of cell growth is defined as the IC50.
(§2) Finally, the protective effects of the test compounds were measured. Each cell culture and test compound were incubated with the virus and the viability of the cells was measured as a function of compound concentration after holding for six or seven days. If the compound is active in protecting the cells against the virus, there is typically low cell viability until an effective concentration of the test compound is reached. At this point, cell viability increases steadily toward 100% unless the toxic effect of the compound (as measured in the second blank) takes effect. The concentration of the test compound that results in 50% "control," i.e., a 50% reduction of the viral cytopathic effect, is defined as the EC 50. The therapeutic index TI50 is calculated as IC50/EC50.
(§3) Values of test compound concentrations required for between 20 and 50% reduction of the viral cytopathic effect can also be determined. Such compounds are classified as moderately active.
(§4) The compounds were tested to determine their reduction of HIV cytopathic effect on the human cell lines CEM and MT2. Tests were done by innoculating these cell lines either with free HIV (V) or with a virus Previously cultured with host cells (C). Thus, in Table III the designation CEMV means CEM line cells innoculated with free virus and MT2C means MT2 cells innoculated with cultured viral infected MT2 cells. In some cases the compound was also tested on a cell line together with a sub-effective amount of the known HIV viricide AZT. This is done to test possible synergistic effects. Such a test on the CEM line is denoted CEMZ.
1) T4 lymphocytes (CEM cell line) are exposed to HIV at a virus to cell ratio of approximately 0.05 and plated along with non-infected control cells in 96-well microtiter plates.
2) Each candidate agent is dissolved in dimethyl sulfoxide (unless otherwise indicated), then diluted 1:200 in cell culture medium. Further dilutions (five-fold) are prepared before adding to an equal volume of medium containing either infected or noninfected cells.
3) Cultures are incubated at 37° C. in a 5% carbon dioxide atmosphere for seven days (if six days the CEMV test is identified as CEM-6).
(§5) 4) The tetrazolium salt, XTT, is added to all wells, and cultures are incubated to allow formazan color development by viable cells.
(§6) 5) Individual wells are analyzed spectrophotometrically to quantity formazan production, and in addition are viewed microscopically for detection of viable cells and confirmation of protective activity.
(§7) 6) Drug-treated virus-infected cells are compared with drug-treated non-infected cells and with other appropriate controls (untreated infected and untreated non-infected cells, drug-containing wells without cells, etc.) on the same plate.
7) A determination of activity is made. […]

[2] = system: HIV; experiment: Reduction of HIV cytopathic effect, CEM-IW protocol; format: cell-based; conditions: asterisk: CEMIW protocol; for EC50: CEM cells, drug added before virus, read-out: Activity of Anti-HIV Compounds (EC50), CEM-IW; for Activity class of Anti-HIV Compounds, CEM-IW: inhibition of viral cytopathic effect
Procedure: as §1, §2, §3, §4
The aforementioned identifiers are used when a batch was prepared and samples inserted into the wells. In procedures calling for the addition of the drug (or no drug) and the CEM uninfected cells to each well, followed by the subsequent addition of the HIV virus, the protocol is designated as CEM-IW.
as §5, §6, §7
Asterisks indicate the CEMIW protocol.

[3] = Human immunodeficiency virus 1, CCRF-CEM

EC50 [2, 3] [nM] | EC50 [2] | Compound | also measured
– | – | CCOC(=O)c1cc(NC(=O)C2=C(C)OCCS2)ccc1Cl [Compound 4, Ethyl 2-chloro-5-[[(5,6-dihydro-2-methyl-1,4-oxathiin-3-yl)carbonyl]amino]benzoate] | EC50 [1]: 300 nM and 200 nM; EC50 [1, 3]: 400 nM
– | – | CCCOC(=O)c1cc(NC(=O)C2=C(C)OCCS2)ccc1Cl [Compound 5, Propyl 2-chloro-5-[[(5,6-dihydro-2-methyl-1,4-oxathiin-3-yl)carbonyl]amino]benzoate] | EC50 [1]: 60 nM; EC50 [1, 3]: 70 nM
– | – | CCCCOC(=O)c1cc(NC(=O)C2=C(C)OCCS2)ccc1Cl [Compound 6, Butyl 2-chloro-5-[[(5,6-dihydro-2-methyl-1,4-oxathiin-3-yl)carbonyl]amino]benzoate] | EC50 [1, 3]: 100 nM
– | – | CCC1=C(C(=O)Nc2ccc(Cl)c(C(=O)OC(C)C)c2)SCCO1 [Compound 7, 1-Methylethyl 2-chloro-5-[[(2-ethyl-5,6-dihydro-1,4-oxathiin-3-yl)carbonyl]amino]benzoate] | EC50 [1]: 700 nM; EC50 [1, 3]: 840 nM
– | – | CC1=C(C(=O)Nc2cccc(C#N)c2)SCCO1 [Compound 9, N-(3-Cyanophenyl)-5,6-dihydro-2-methyl-1,4-oxathiin-3-carboxamide] | Activity class of Anti-HIV Compounds, CEMV ([1]; inhibition of viral cytopathic effect, free virus): MA (moderate activity (MA), that is, inhibition between approximately 20 and 50%)
– | – | CC1=C(C(=O)Nc2cccc(C(=O)OC(C)C)c2)SCCO1 [Compound 10, 1-Methylethyl 3-[[(5,6-dihydro-2-methyl-1,4-oxathiin-3-yl)carbonyl]amino]benzoate] | EC50 [1]: 2900 nM; EC50 [1, 3]: 3000 nM
– | – | CC1=C(C(=O)Nc2cc(C(=O)OC(C)C)ccc2F)SCCO1 [Compound 13, 1-Methylethyl 3-[[(5,6-dihydro-2-methyl-1,4-oxathiin-3-yl)carbonyl]amino]-4-fluorobenzoate] | EC50 [1]: 13200 nM; EC50 [1, 3]: 15200 nM
– | – | CCOC(=O)c1ccc(C)c(NC(=O)C2=C(C)OCCS2)c1 [Compound 14, Ethyl 3-[[(5,6-dihydro-2-methyl-1,4-oxathiin-3-yl)carbonyl]amino]-4-methylbenzoate] | EC50 [1]: 5200 nM; EC50 [1, 3]: 7600 nM
660 | 680 nM and 730 nM | CCOC(=S)Nc1ccc(Cl)c(C(=O)OC(C)C)c1 [Compound 33] | –
240 | 180 nM and 200 nM | CCCOC(=S)Nc1ccc(Cl)c(C(=O)OC(C)C)c1 [Compound 35] | –
1040 | 1380 nM and 1320 nM and 890 nM | CCCCCOC(=S)Nc1ccc(Cl)c(C(=O)OC(C)C)c1 [Compound 36] | –
320 | 200 nM | C=CCOC(=S)Nc1ccc(Cl)c(C(=O)OC(C)C)c1 [Compound 37] | –
1090 | 1470 nM and 1750 nM and 1460 nM | CC(C)OC(=O)c1cc(NC(=S)OC2C=CCCC2)ccc1Cl (centres unmarked) [Compound 39] | –
– | – | CC(C)OC(=O)c1cc(NC(=S)OCC2CCCO2)ccc1Cl (centres unmarked) [Compound 43] | Activity class of Anti-HIV Compounds, CEM-IW [2]: MA (moderate activity (MA), that is, inhibition between approximately 20 and 50%)
2440 | 2470 nM and 1940 nM | CCCSC(=Nc1ccc(Cl)c(C(=O)OC(C)C)c1)OC(C)C [Compound 52] | –
870 | 750 nM and 1060 nM and 900 nM | Cc1oc(C)c(C(=S)Nc2ccc(Cl)c(C(=O)OC(C)C)c2)c1C [Compound 58, 1-Methylethyl 2-chloro-5-[(2,4,5-trimethyl 3-furanyl)thioxomethyl]amino1benzoate] | –
43 | 37 nM | Cc1occc1C(=S)Nc1ccc(Cl)c(C(=O)OC(C)C)c1 [Compound 59, 1-methylethyl 2-chloro-5-[(2-methyl-3-furanyl)thioxomethyl]amino benzoate] | –
390 | 620 nM and 420 nM and 450 nM | CC(C)OC(=O)c1cc(NC(=S)c2ccccc2)ccc1Cl [Compound 61, Benzoic acid, 2-chloro-5-(phenylthioxomethyl) amino-, 1-methylethyl ester] | –
476 | 404 nM and 588 nM and 509 nM | COc1ccccc1C(=S)Nc1ccc(Cl)c(C(=O)OC(C)C)c1 [Compound 65] | –

EC50 [2, 3] [nM] | EC50 [2] | Compound | also measured
2670 | 2560 nM and 2150 nM and 2880 nM | CC(C)OC(=O)c1cc(NC(=O)c2ccccc2I)ccc1Cl [Compound 82, 1-Methylethyl 2-chloro-5-[(2-iodobenzoyl)amino]benzoate] | –
– | – | COc1ccccc1C(=O)Nc1ccc(Cl)c(C(=O)OCC2CCCO2)c1 (centres unmarked) [Compound 83, Tetrahydro-2-furanylmethyl 2-chloro-5-[(2-methoxybenzoyl)-amino]benzoate] | Activity class of Anti-HIV Compounds, CEM-IW [2]: MA (moderate activity (MA), that is, inhibition between approximately 20 and 50%)
– | – | COc1ccccc1NC(=O)Nc1ccc(Cl)c(C(=O)OC(C)C)c1 [Compound 99] | Activity class of Anti-HIV Compounds, CEM-IW [2]: MA (moderate activity (MA), that is, inhibition between approximately 20 and 50%)
– | – | CC(C)OC(=O)c1cc(NC(=O)OC2CCCCC2)ccc1Cl [Compound 102] | Activity class of Anti-HIV Compounds, CEM-IW [2]: MA (moderate activity (MA), that is, inhibition between approximately 20 and 50%)
– | – | CC1=C(C(=O)Nc2ccc(O)c(C(=O)OC(C)C)c2)SCCO1 [Compound 112, 1-Methylethyl 5-[[(5,6-dihydro-2-methyl-1,4-oxathiin-3-yl)-carbonyl]amino]-2-hydroxybenzoate] | Activity class of Anti-HIV Compounds, CEM-IW [2]: MA (moderate activity (MA), that is, inhibition between approximately 20 and 50%)
– | – | CC(=O)Nc1ccccc1C(=O)Nc1ccc(Cl)c(C(=O)OC(C)C)c1 [Compound 114, 1-Methylethyl 5-[(2-acetamidobenzoyl)amino]-2-chlorobenzoate] | Activity class of Anti-HIV Compounds, CEM-IW [2]: MA (moderate activity (MA), that is, inhibition between approximately 20 and 50%)
– | – | CC(C)OC(=O)c1cc(NC(=S)OCc2ccccc2)ccc1Cl [Compound 117] | Activity class of Anti-HIV Compounds, CEM-IW [2]: MA (moderate activity (MA), that is, inhibition between approximately 20 and 50%)
– | – | COC(=O)c1ccccc1S(=O)(=O)NC(=O)Nc1ccc(Cl)c(C(=O)OC(C)C)c1 [Compound 130] | Activity class of Anti-HIV Compounds, CEM-IW [2]: MA (moderate activity (MA), that is, inhibition between approximately 20 and 50%)
– | – | CC(C)OC(=O)c1cc(NC(=NS(=O)(=O)c2ccccc2)c2ccccc2F)ccc1Cl [Compound 131] | Activity class of Anti-HIV Compounds, CEM-IW [2]: MA (moderate activity (MA), that is, inhibition between approximately 20 and 50%)
260 | 373 nM and 243 nM and 422 nM | CCOC(=O)c1cc(NC(=S)OC(C)C)ccc1SC [Compound 145] | –
590 | 608 nM | CC1=C(C(=O)Nc2ccccc2C(=O)Nc2ccc(Cl)c(C(=O)OC(C)C)c2)SCCO1 [Compound 147] | –
– | – | CCOC(=O)c1cc(NC(=S)OC(C)C)ccc1Cl [Compound 148] | Activity class of Anti-HIV Compounds, CEM-IW [2]: MA (moderate activity (MA), that is, inhibition between approximately 20 and 50%)
210 | 230 nM and 296 nM and 329 nM | CCOC(=O)c1cc(NC(=S)OC(C)C)ccc1C [Compound 150] | –
95.4 | 84.2 nM and 77.7 nM and 53.7 nM | CCC(CC)OC(=O)c1cc(NC(=S)OC(C)C)ccc1Cl [Compound 151] | –
71.7 | 41.7 nM and 36.8 nM and 57.1 nM | CCC(C)OC(=O)c1cc(NC(=S)OC(C)C)ccc1Cl (centres unmarked) [Compound 152] | –
71.9 | 42.6 nM and 53 nM | CCCCOC(=O)c1cc(NC(=S)OC(C)C)ccc1Cl [Compound 153] | –
44.3 | – | CCCOC(=O)c1cc(NC(=S)OC(C)C)ccc1Cl [Compound 154] | –
– | – | CC(=O)Oc1ccc(NC(=O)C2=C(C)OCCS2)cc1C(=O)OC(C)C [Compound 157] | Activity class of Anti-HIV Compounds, CEM-IW [2]: MA (moderate activity (MA), that is, inhibition between approximately 20 and 50%)
6100 | 6770 nM and 4490 nM and 3620 nM | CCC(=O)Oc1ccc(NC(=O)C2=C(C)OCCS2)cc1C(=O)OC(C)C [Compound 158] | –
